# According to ChEMBL document CHEMBL6109134, “Discovery of AMG 193, an MTA-Cooperative PRMT5 Inhibitor for the Treatment of MTAP-Deleted Cancers” (J Med Chem, 2025):
# Legend:
# [1] = Protein binding in mouse plasma assessed as unbound fraction by ultracentrifugation
# in vivo [2] = conditions: CD-1, mouse, iv, 1 mg/kg
# CYP3A4 = CYP3A4 (Homo sapiens, UniProt P08684); assay: in vitro; conditions: human liver microsomes, probe midazolam
# [3] = Oral bioavailability in CD-1 mouse at 5 mg/kg administered as 1% Tween 80, 2% HPMC, 97% water/methane sulfonic acid, pH 2.0 formulation; format: ADME, organism-based; conditions: in vivo
# [4] = Half-life in CD-1 mouse at 1 mg/kg, iv; format: ADME, organism-based; conditions: in vivo
# [5] = Unbound clearance in CD-1 mouse at 1 mg/kg, iv; format: ADME, organism-based; conditions: in vivo
# [6] = Metabolic stability in mouse liver microsomes assessed as intrinsic clearance at 0.5 uM incubated for 40 mins in presence of NADPH; format: ADME, Microsome; conditions: read-out: CLH
# [7] = Metabolic stability in human liver microsomes assessed as intrinsic clearance at 0.5 uM incubated for 40 mins in presence of NADPH; format: ADME, Microsome; conditions: read-out: CLH
# [8] = target: T1, Nuclear receptor subfamily 1 group I member 2 (Homo sapiens, UniProt O75469); assay: Activation of human PXR in human HepG2 cells co-transfected with CYP3A4-luciferase at 10 uM incubated for 1 day relative to control; conditions: hepg2, 24 h
# T1 sequence (O75469 whole entry): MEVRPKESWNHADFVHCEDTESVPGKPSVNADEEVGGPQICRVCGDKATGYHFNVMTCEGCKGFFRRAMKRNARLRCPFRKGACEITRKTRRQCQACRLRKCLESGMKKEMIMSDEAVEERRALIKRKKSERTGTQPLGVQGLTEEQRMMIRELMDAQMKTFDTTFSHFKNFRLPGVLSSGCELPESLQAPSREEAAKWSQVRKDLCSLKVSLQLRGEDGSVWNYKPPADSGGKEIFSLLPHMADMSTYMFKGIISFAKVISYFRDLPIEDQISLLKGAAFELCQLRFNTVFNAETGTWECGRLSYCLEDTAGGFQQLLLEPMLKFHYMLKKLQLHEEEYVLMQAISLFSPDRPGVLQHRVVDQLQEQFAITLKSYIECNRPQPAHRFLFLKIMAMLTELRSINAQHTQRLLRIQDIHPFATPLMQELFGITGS
# human MDR1 (P-gp) = assay: Efflux ratio of permeability across basolateral to apical side over apical to basolateral side in MDCK cells transfected with human MDR1 in absence of elacridar; conditions: dog
# HCT-116 [9] = assay: Antiproliferative activity against human HCT-116 cells harboring wildtype MTAP assessed as effect on cell viability incubated for 6 days by Celltiter-Glo luminescent cell viability assay; format: functional, cell-based; conditions: HCT-116, 144 h
# HCT-116 [10] = assay: Antiproliferative activity against MTAP-deleted human HCT-116 cells assessed as effect on cell viability incubated for 6 days by Celltiter-Glo luminescent cell viability assay; format: functional, cell-based; conditions: HCT-116, 144 h
# PRMT5/MEP50 complex = PRMT5/MEP50 complex (Homo sapiens, UniProt O14744)
# Chain of PRMT5/MEP50 complex (O14744 whole entry): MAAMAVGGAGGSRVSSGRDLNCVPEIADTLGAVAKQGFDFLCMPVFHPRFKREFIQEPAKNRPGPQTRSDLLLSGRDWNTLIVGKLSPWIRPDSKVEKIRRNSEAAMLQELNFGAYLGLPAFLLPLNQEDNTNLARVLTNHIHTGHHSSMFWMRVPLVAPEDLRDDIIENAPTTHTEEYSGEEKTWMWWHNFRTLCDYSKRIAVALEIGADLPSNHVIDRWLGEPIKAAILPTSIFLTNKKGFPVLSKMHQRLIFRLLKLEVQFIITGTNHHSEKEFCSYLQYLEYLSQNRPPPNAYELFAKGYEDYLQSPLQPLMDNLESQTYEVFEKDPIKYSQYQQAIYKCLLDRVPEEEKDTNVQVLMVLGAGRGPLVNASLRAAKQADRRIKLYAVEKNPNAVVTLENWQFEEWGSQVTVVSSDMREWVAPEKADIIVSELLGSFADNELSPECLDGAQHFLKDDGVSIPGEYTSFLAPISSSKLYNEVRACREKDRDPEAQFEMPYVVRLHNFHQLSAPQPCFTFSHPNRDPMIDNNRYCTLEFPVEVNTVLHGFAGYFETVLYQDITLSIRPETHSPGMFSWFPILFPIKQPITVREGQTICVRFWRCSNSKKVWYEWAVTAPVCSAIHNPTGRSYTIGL
# Chain of PRMT5/MEP50 complex (Q9BQA1 whole entry, further chain): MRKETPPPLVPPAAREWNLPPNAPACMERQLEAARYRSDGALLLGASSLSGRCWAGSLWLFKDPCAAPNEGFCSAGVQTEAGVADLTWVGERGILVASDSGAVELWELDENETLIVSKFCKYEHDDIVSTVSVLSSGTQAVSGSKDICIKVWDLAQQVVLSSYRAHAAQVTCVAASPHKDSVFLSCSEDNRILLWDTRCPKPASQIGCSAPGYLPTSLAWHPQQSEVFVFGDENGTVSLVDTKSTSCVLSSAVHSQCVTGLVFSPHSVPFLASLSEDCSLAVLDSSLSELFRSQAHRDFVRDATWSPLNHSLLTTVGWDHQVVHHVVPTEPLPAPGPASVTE
# Description: Inhibition of PRMT5/MEP50 (unknown origin) preincubated with compound for 24 hrs in presence of SAM and MTA followed by Histone H4 (1-21)-Lys(Biotin) peptide addition and measured after 2 hrs by MTase-Glo reagent based assay
# [11] = Clearance in CD-1 mouse at 1 mg/kg, iv; conditions: in vivo
# DOHH-2 = assay: Antiproliferative activity against human DOHH-2 cells assessed as effect on cell viability; format: functional, cell-based
# [12] = Oral bioavailability in Beagle dog at 2 mg/kg administered as 1% Tween 80, 2% HPMC, 97% water/methanesulfonic acid, pH 2.0 formulation; format: ADME, organism-based, Canis lupus familiaris; conditions: in vivo
# in vivo [13] = conditions: beagle, dog, iv, 0.5 mg/kg
# [14] = Drug metabolism in mouse hepatocytes assessed as 3-methylquinoline ring system oxidation mediated metabolite formation; format: ADME, cell-based, Hepatocyte
# [15] = Clearance in Beagle dog at 0.5 mg/kg, iv; conditions: in vivo
# [16] = Metabolic stability in dog liver microsomes assessed as intrinsic clearance; format: ADME, Canis lupus familiaris, Microsome; conditions: read-out: CLH
# [17] = Clearance in Sprague-Dawley rat at 0.5 mg/kg, iv; conditions: in vivo
# [18] = Metabolic stability in dog hepatocytes assessed as intrinsic clearance measured per 10^6 cells; format: ADME, cell-based, Canis lupus familiaris, Hepatocyte; conditions: read-out: CLH
# U-87 MG = assay: Antiproliferative activity against human U-87 MG cells assessed as effect on cell viability; format: functional, cell-based, U-87MG ATCC
# [19] = Metabolic stability in human hepatocytes assessed as intrinsic clearance measured per 10^6 cells; format: ADME, cell-based, Hepatocyte; conditions: read-out: CLH
# [20] = Volume of distribution at steady state in Sprague-Dawley rat at 0.5 mg/kg, iv; conditions: in vivo
# [21] = Half-life in Sprague-Dawley rat at 0.5 mg/kg, iv; format: ADME, organism-based; conditions: in vivo
# [22] = Unbound clearance in Sprague-Dawley rat at 0.5 mg/kg, iv; format: ADME, organism-based; conditions: in vivo
# [23] = Metabolic stability in mouse hepatocytes assessed as intrinsic clearance measured per 10^6 cells; format: ADME, cell-based, Hepatocyte; conditions: read-out: CLH
# [24] = Unbound clearance in Beagle dog at 0.5 mg/kg, iv; format: ADME, organism-based, Canis lupus familiaris; conditions: in vivo
# [25] = AUC (0 to t) in CD-1 mouse at 5 mg/kg, po administered as 1% Tween 80, 2% HPMC, 97% water/methane sulfonic acid, pH 2.0 formulation; format: ADME, organism-based; conditions: in vivo
# [26] = Protein binding in dog plasma assessed as unbound fraction by ultracentrifugation
# [27] = Metabolic stability in rat hepatocytes assessed as intrinsic clearance measured per 10^6 cells; format: ADME, cell-based, Hepatocyte; conditions: read-out: CLH
# [28] = Drug metabolism in human hepatocytes assessed as 3-methylquinoline ring system oxidation mediated metabolite formation; format: ADME, cell-based, Hepatocyte
# [29] = Metabolic stability in rat liver microsomes assessed as intrinsic clearance; format: ADME, Microsome; conditions: time 40 min, read-out: CLH
# [30] = Half-life in Beagle dog at 0.5 mg/kg, iv; format: ADME, organism-based, Canis lupus familiaris; conditions: in vivo
# [31] = Protein binding in human plasma assessed as unbound fraction by ultracentrifugation
# BXPC-3 = assay: Antiproliferative activity against human BXPC-3 cells assessed as effect on cell viability; format: functional, cell-based
# Chain of CYP3A4 (P08684 whole entry): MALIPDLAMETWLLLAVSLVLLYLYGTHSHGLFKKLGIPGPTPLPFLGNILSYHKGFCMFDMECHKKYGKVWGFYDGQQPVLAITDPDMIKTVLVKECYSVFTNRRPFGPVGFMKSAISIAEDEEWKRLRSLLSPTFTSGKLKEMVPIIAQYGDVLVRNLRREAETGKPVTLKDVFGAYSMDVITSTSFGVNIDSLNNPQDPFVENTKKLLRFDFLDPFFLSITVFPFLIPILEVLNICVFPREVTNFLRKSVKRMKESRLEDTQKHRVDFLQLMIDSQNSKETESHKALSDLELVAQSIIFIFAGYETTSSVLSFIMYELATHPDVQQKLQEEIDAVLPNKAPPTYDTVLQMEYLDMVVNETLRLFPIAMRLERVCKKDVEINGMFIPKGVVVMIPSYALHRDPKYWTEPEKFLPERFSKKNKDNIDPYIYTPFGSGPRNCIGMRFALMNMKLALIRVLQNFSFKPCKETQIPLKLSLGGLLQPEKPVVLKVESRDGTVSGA
smiles,measurement,setting,value
C[C@H]1OCc2c1c(N)nc1cnc(C(=O)N3CCOC[C@@H]3c3ccc(C(F)(F)F)cc3)cc21,fraction unbound,[1]; mouse plasma,0.09
same,Vd,in vivo [2],1.8 L/kg
same,"inhibition at 30 min, 10 µM",CYP3A4,< 20%
same,bioavailability,[3],82%
same,half-life,[4],1.6 h
same,CL free,[5],147 mL/min/kg
same,microsomal CLint at 0.5 µM,[6],51 µL/min/mg
same,microsomal CLint at 0.5 µM,[7],26 µL/min/mg
same,Activity,[8],80%
same,efflux ratio,human MDR1 (P-gp),7
same,IC50,HCT-116 [9],2460 nM
same,IC50,HCT-116 [10],64 nM
same,Ki,PRMT5/MEP50 complex,< 0.1 nM
same,clearance,[11],13.3 mL/min/kg
C[C@@H]1COC[C@H](c2ccc(C(F)(F)F)cc2)N1C(=O)c1cc2c3c(c(N)nc2cn1)COC3,fraction unbound,[1]; mouse plasma,0.08
same,Vd,in vivo [2],3 L/kg
same,"inhibition at 30 min, 10 µM",CYP3A4,< 20%
same,bioavailability,[3],51%
same,half-life,[4],2.6 h
same,CL free,[5],233 mL/min/kg
same,microsomal CLint at 0.5 µM,[6],178 µL/min/mg
same,microsomal CLint at 0.5 µM,[7],43 µL/min/mg
same,Activity,[8],< 20%
same,efflux ratio,human MDR1 (P-gp),5
same,IC50,HCT-116 [9],264 nM
same,IC50,HCT-116 [10],7 nM
same,Ki,PRMT5/MEP50 complex,< 0.1 nM
same,clearance,[11],18.3 mL/min/kg
Cc1cc2cc(C(=O)N(Cc3ccc(C(F)(F)F)cn3)[C@H](C)c3ncccn3)ccc2nc1N,IC50,DOHH-2,17 nM
same,fraction unbound,[1]; plasma,0.12
same,bioavailability,[12],45%
same,Vd,in vivo [13],1.9 L/kg
same,Drug metabolism,[14],metabolite_detected
same,clearance,[15],25 mL/min/kg
same,microsomal CLint,[16],25 µL/min/mg
same,clearance,[17],26.7 mL/min/kg
same,hepatocyte CLint,[18],12 µL/min/1e6 cells
same,IC50,U-87 MG,65 nM
same,hepatocyte CLint,[19],9 µL/min/1e6 cells
same,Vd,[20],1.3 L/kg
same,half-life,[21],2.1 h
same,CL free,[5],317 mL/min/kg
same,CL free,[22],167 mL/min/kg
same,microsomal CLint at 0.5 µM,[6],90 µL/min/mg
same,hepatocyte CLint,[23],18 µL/min/1e6 cells
same,CL free,[24],123 mL/min/kg
same,AUC(0-t),[25],1.01 µM·h
same,fraction unbound,[26],0.2
same,microsomal CLint at 0.5 µM,[7],19 µL/min/mg
same,hepatocyte CLint,[27],11 µL/min/1e6 cells
same,Drug metabolism,[28],metabolite_detected
same,microsomal CLint at 0.5 µM,[29],25 µL/min/mg
same,half-life,[30],1.2 h
same,IC50,HCT-116 [9],854 nM
same,fraction unbound,[31],0.1
same,IC50,HCT-116 [10],40 nM
same,IC50,BXPC-3,73 nM
CN(Cc1ccc(C(F)(F)F)cn1)C(=O)c1ccc2nc(N)c3c(c2c1)COC3,fraction unbound,[1]; mouse plasma,0.21
same,Vd,in vivo [2],0.9 L/kg
same,"inhibition at 30 min, 10 µM",CYP3A4,< 20%
same,bioavailability,[3],64%
same,half-life,[4],2.2 h
same,CL free,[5],40 mL/min/kg
same,microsomal CLint at 0.5 µM,[6],19 µL/min/mg
same,microsomal CLint at 0.5 µM,[7],14 µL/min/mg
same,Activity,[8],< 20%
same,efflux ratio,human MDR1 (P-gp),23
same,IC50,HCT-116 [9],8790 nM
same,IC50,HCT-116 [10],426 nM
same,Ki,PRMT5/MEP50 complex,0.1 nM
same,clearance,[11],8.33 mL/min/kg
CCN(Cc1ccc(C(F)(F)F)cn1)C(=O)c1ccc2nc(N)c3c(c2c1)COC3,fraction unbound,[1]; mouse plasma,0.12
same,Vd,in vivo [2],1.5 L/kg
same,"inhibition at 30 min, 10 µM",CYP3A4,< 20%
same,bioavailability,[3],95%
same,half-life,[4],2 h
same,CL free,[5],96.7 mL/min/kg
same,microsomal CLint at 0.5 µM,[6],45 µL/min/mg
same,microsomal CLint at 0.5 µM,[7],30 µL/min/mg
same,Activity,[8],< 20%
same,efflux ratio,human MDR1 (P-gp),10
same,IC50,HCT-116 [9],3210 nM
same,IC50,HCT-116 [10],100 nM
same,Ki,PRMT5/MEP50 complex,< 0.1 nM
same,clearance,[11],11.7 mL/min/kg
C[C@H](c1ncccn1)N(Cc1ccc(C(F)(F)F)cn1)C(=O)c1ccc2nc(N)c3c(c2c1)COC3,fraction unbound,[1]; mouse plasma,0.23
same,Vd,in vivo [2],1.4 L/kg
same,"inhibition at 30 min, 10 µM",CYP3A4,4%
same,bioavailability,[3],8%
same,half-life,[4],0.9 h
same,CL free,[5],167 mL/min/kg
same,microsomal CLint at 0.5 µM,[6],278 µL/min/mg
same,microsomal CLint at 0.5 µM,[7],129 µL/min/mg
same,Activity,[8],13%
same,efflux ratio,human MDR1 (P-gp),63
same,IC50,HCT-116 [9],78 nM
same,IC50,HCT-116 [10],14 nM
same,Ki,PRMT5/MEP50 complex,< 0.1 nM
same,clearance,[11],38.3 mL/min/kg
